In patent publication US8722014B2, “1 H-[1, 2, 3] triazole substituted amino acids and uses thereof” (Washington University, priority 2009, dated 2014):
Several values for one entry are separate records, joined by “and”; a condition that tells them apart may be missing. Identical values can stand only once. Like-named read-outs stand apart in the source and are kept apart here.

Legend:
[1] = test system: intracranial 9L gliosarcoma tumor
Experimental: (§1) MicroPET imaging studies were performed in 2 rats implanted with subcutaneous 9L tumors and 1 rat implanted with an intracranial tumor. The subcutaneous implantations were performed as in the biodistribution studies except that the tumors were allowed to grow for 11 days prior to imaging. The intracranial tumor was implanted in the left midcerebrum using a template method as described previously in La Regina, M. C., et al., Lab. Anim. 34: 265-271, 2000, using a total of 5×10^4 cells suspended in 5 µL total volume. […] Computed axial tomography (CT) images were acquired with a MicroCAT II System (ImTek Inc., Knoxville, Tenn.), and PET data were acquired with MicroPET-FOCUS 120 and 220 scanners (Concorde MicroSystems Knoxville Tenn., USA) for 120 minutes after the intravenous tail vein injection of 0.24 to 0.31 mCi of (S)-[^18F]4. The PET and CT images were fused and analyzed using an Amira software package (Carlsbad Calif., USA), and time-activity curves were generated using ASIPro PET data analysis software (Concorde MicroSystems, Knoxville Tenn., USA).

[2] = test system: subcutaneous 9L gliosarcoma tumor
Experimental: as §1

[3] = test system: subcutaneous 9L gliosarcoma tumors
Experimental: Biodistribution studies were performed with both enantiomers, (R)-[^18F]4 and (S)-[^18F]4, using Fischer 344 rats (Charles River Laboratories, Wilmington Mass., USA) implanted with subcutaneous 9L gliosarcoma tumors. The tumors were implanted by subcutaneous injection of a suspension of approximately 1×10^69L gliosarcoma cells into the flanks of the rats. The tumors were allowed to grow for 3 weeks prior to the study. The rats were allowed food and water ad libitum prior to the biodistribution study. Anesthesia was achieved using a mixture of 1% isoflurane in oxygen, and the radiolabeled amino acid (R)-[^18F]4 or (S)-[^18F]4 was injected intravenously through a tail vein. The animals were euthanized in groups of four for each enantiomer at 5, 30 or 60 minutes after injection. The organs and tissues of interest and the tumors were dissected and weighed, and the amounts of activity were measured and decay corrected to the time of injection with a gamma counter. Standards for the doses were also measured with a gamma counter, and the data were normalized as the percent of total dose per gram of tissue (% ID/g) for each sample. The data were analyzed using GraphPad Prism software with 1-way ANOVAs for each enantiomer at each time point with Bonferroni post-tests. The tumor and brain uptake of radioactivity was directly compared for both enantiomers at each time point with a 2-way ANOVA with Bonferroni post-test. p-values less than or equal to 0.05 were considered statistically significant.

[4] = post injection, intracranial tumor
[5] = post injection, subcutaneous tumor

SMILES: Cl.N[C@@H](Cc1cn(CC[18F])nn1)C(=O)O [(S)-[^18F]4, (S)-2-amino-3-[1-(2-fluoroethyl)-1H-[1,2,3]triazol-4-yl]propanoic acid hydrochloride salt-[^18F]]
- maximal tumor to brain ratio ([1]; MicroPET study): approximately 9
- time of peak uptake in adjacent normal tissues ([1]; brain, post injection): ≤ 5 min
- maximal standard uptake value (SUV) ([1]; intracranial tumor): 1.1
- time of maximal tumor uptake [1, 4]: 27.5 min
- time of near maximal tumor uptake [1, 4]: approximately 20 min
- tumor to bone (spinal column) ratio ([2]; 30 min, MicroPET): 2.5
- tumor to paraspinal muscle uptake ratio ([2]; 30 min, MicroPET): approximately 5.0
- time of peak uptake in adjacent normal tissues ([2]; paraspinal muscle and spinal column, post injection): ≤ 5 min
- time of maximal tumor uptake [2, 5]: 32.5 min
- time of near maximal tumor uptake [2, 5]: approximately 20 min
- maximal standard uptake value (SUV) ([2]; subcutaneous 9L tumor): 1.6
- biodistribution: blood ([3]; 5 min after i.v. injection): 0.98 ± 0.152 % ID/g
- biodistribution: bone ([3]; 5 min after i.v. injection): 0.47 ± 0.065 % ID/g
- biodistribution: brain ([3]; 5 min after i.v. injection): 0.08 ± 0.011 % ID/g
- biodistribution: fat ([3]; 5 min after i.v. injection): 0.09 ± 0.020 % ID/g
- biodistribution: heart ([3]; 5 min after i.v. injection): 0.43 ± 0.048 % ID/g
- biodistribution: kidney ([3]; 5 min after i.v. injection): 11.02 ± 1.224 % ID/g
- biodistribution: large intestine ([3]; 5 min after i.v. injection): 0.14 ± 0.012 % ID/g
- biodistribution: liver ([3]; 5 min after i.v. injection): 0.34 ± 0.035 % ID/g
- biodistribution: lung ([3]; 5 min after i.v. injection): 0.87 ± 0.117 % ID/g
- biodistribution: muscle ([3]; 5 min after i.v. injection): 0.18 ± 0.030 % ID/g
- biodistribution: pancreas ([3]; 5 min after i.v. injection): 2.75 ± 0.634 % ID/g
- biodistribution: salivary gland ([3]; 5 min after i.v. injection): 0.74 ± 0.043 % ID/g
- biodistribution: small intestine ([3]; 5 min after i.v. injection): 0.69 ± 0.076 % ID/g
- biodistribution: spleen ([3]; 5 min after i.v. injection): 0.72 ± 0.054 % ID/g
- biodistribution: testes ([3]; 5 min after i.v. injection): 0.21 ± 0.013 % ID/g
- biodistribution: thyroid ([3]; 5 min after i.v. injection): 0.71 ± 0.117% of total dose per organ
- biodistribution: tumor ([3]; 5 min after i.v. injection): 0.47 ± 0.069 % ID/g
- tumor:brain ratio ([3]; 5 min after i.v. injection): 5.9
- tumor bone (femur) ratio ([3]; 30 min, biodistribution study): 2.3
- tumor to muscle ratio ([3]; 30 min, biodistribution study): 4.7
- biodistribution: blood ([3]; 30 min after i.v. injection): 0.47 ± 0.101 % ID/g
- biodistribution: bone ([3]; 30 min after i.v. injection): 0.36 ± 0.068 % ID/g
- biodistribution: brain ([3]; 30 min after i.v. injection): 0.06 ± 0.008 % ID/g
- biodistribution: fat ([3]; 30 min after i.v. injection): 0.05 ± 0.010 % ID/g
- biodistribution: heart ([3]; 30 min after i.v. injection): 0.38 ± 0.066 % ID/g
- biodistribution: kidney ([3]; 30 min after i.v. injection): 11.41 ± 1.939 % ID/g
- biodistribution: large intestine ([3]; 30 min after i.v. injection): 0.15 ± 0.028 % ID/g
- biodistribution: liver ([3]; 30 min after i.v. injection): 0.43 ± 0.091 % ID/g
- biodistribution: lung ([3]; 30 min after i.v. injection): 0.83 ± 0.179 % ID/g
- biodistribution: muscle ([3]; 30 min after i.v. injection): 0.18 ± 0.037 % ID/g
- biodistribution: pancreas ([3]; 30 min after i.v. injection): 2.20 ± 0.747 % ID/g
- biodistribution: salivary gland ([3]; 30 min after i.v. injection): 0.66 ± 0.139 % ID/g
- biodistribution: small intestine ([3]; 30 min after i.v. injection): 0.54 ± 0.073 % ID/g
- biodistribution: spleen ([3]; 30 min after i.v. injection): 0.75 ± 0.123 % ID/g
- biodistribution: testes ([3]; 30 min after i.v. injection): 0.17 ± 0.033 % ID/g
- biodistribution: thyroid ([3]; 30 min after i.v. injection): 0.44 ± 0.102% of total dose per organ
- biodistribution: tumor ([3]; 30 min after i.v. injection): 0.83 % ID/g and 0.83 ± 0.142 % ID/g
- tumor:brain ratio ([3]; 30 min after i.v. injection): 14.6
- tumor to lung ratio ([3]; 60 min): 1.3
- tumor to spleen ratio ([3]; 60 min): 1.5
- tumor to normal tissue ratios ([3]; 60 min, except in the lung and the spleen): at least 2
- biodistribution: blood ([3]; 60 min after i.v. injection): 0.23 ± 0.015 % ID/g
- biodistribution: bone ([3]; 60 min after i.v. injection): 0.23 ± 0.011 % ID/g
- biodistribution: brain ([3]; 60 min after i.v. injection): 0.05 ± 0.001 % ID/g
- biodistribution: fat ([3]; 60 min after i.v. injection): 0.04 ± 0.007 % ID/g
- biodistribution: heart ([3]; 60 min after i.v. injection): 0.30 ± 0.011 % ID/g
- biodistribution: kidney ([3]; 60 min after i.v. injection): 4.79 ± 0.378 % ID/g
- biodistribution: large intestine ([3]; 60 min after i.v. injection): 0.10 ± 0.012 % ID/g
- biodistribution: liver ([3]; 60 min after i.v. injection): 0.32 ± 0.021 % ID/g
- biodistribution: lung ([3]; 60 min after i.v. injection): 0.56 ± 0.085 % ID/g
- biodistribution: muscle ([3]; 60 min after i.v. injection): 0.16 ± 0.006 % ID/g
- biodistribution: pancreas ([3]; 60 min after i.v. injection): 1.12 ± 0.151 % ID/g
- biodistribution: salivary gland ([3]; 60 min after i.v. injection): 0.36 ± 0.037 % ID/g
- biodistribution: small intestine ([3]; 60 min after i.v. injection): 0.31 ± 0.024 % ID/g
- biodistribution: spleen ([3]; 60 min after i.v. injection): 0.47 ± 0.035 % ID/g
- biodistribution: testes ([3]; 60 min after i.v. injection): 0.11 ± 0.006 % ID/g
- biodistribution: thyroid ([3]; 60 min after i.v. injection): 0.30 ± 0.024% of total dose per organ
- biodistribution: tumor ([3]; 60 min after i.v. injection): 0.72 ± 0.098 % ID/g
- tumor:brain ratio ([3]; 60 min after i.v. injection): 15.2
- magnitude of tumor uptake compared with the (R)-enantiomer ([3]; at all 3 time points, p<0.001): higher
- maximal tumor to brain ratio ([3]; biodistribution study): 15
